Measurements as given in patent publication US20210330611A1, “THERAPY FOR NEUROLOGICAL DISEASES/DISORDERS” (priority 2020, published 2021).
Like-named read-outs stand apart in the source and are kept apart here. Where a SMILES comes first, the peptide text is derived from it. Bridges are numbered along the chain shown (N, C = ends). [ ]: non-standard residue; d: D form. The star is where a group is joined. Ileψ(thiazoline)Cys = CC[C@H](C)[C@H](N)C1=N[C@H](C(=O)*)CS1; dOrn = NCCC[C@@H](N)C(=O)O

What was measured:
in vitro [1] = details: rat
[2] = test system: fibrin- and LPS-induced microglia activation; assay: cells; assay type: cell-based, rat; details: for inhibition at 10 µM: Rattus norvegicus
primary rat microglia [3] = assay: Cell toxicity (dead cells, size <150 μm2) in LPS assay; details: for LPS % cell toxicity: primary microglia HTS, LPS stimulation, decreased size (<150 μm^2) as marker of toxicity; for IC50: read-out: Cell Toxicity IC50 (uM) [LPS assay], LPS assay
[4] = test system: fibrin-induced microglia activation; assay: Image-based assay of fibrin-induced microglia activation (HTS and dose response); assay type: cell-based, rat; details: for IC50 / inhibition at 10 µM: Rattus norvegicus, Microglia; for inhibition at 10 µM: primary microglia HTS, fibrin stimulation, read-out: Fibrin % inhibition
primary rat microglia [5] = details: rat
primary rat microglia [6] = assay: Cell toxicity (dead cells, size <150 μm2) in coated fibrin (cFib) assay; details: primary microglia HTS;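 for Fibrin % cell toxicity: share of dead cells sized under 150 µm2 at 10 µM in fibrin-stimulated microglia HTS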
[7] = test system: LPS-induced microglia activation; assay: Image-based assay of LPS-induced microglia activation (HTS and dose response); assay type: cell-based, rat; details: Rattus norvegicus, Microglia; for inhibition at 10 µM: primary microglia HTS, LPS stimulation, read-out: LPS % inhibition
in vitro [8] = details: rat, Cell Toxicity IC50 (uM) [cFib assay]
primary rat microglia [9] = details: rat; remark: listed apart in the source
[10] = HTS of 1907 compounds, quadrant by fibrin and LPS inhibition
[11] = Microglia, HTS hit classification, read-out: Hit
[12] = hit classification in microglia HTS, read-out: Cherry-picked Hit (Suppl. Table 7)
[13] = quadrant by fibrin and LPS inhibition in HTS of 1907 compounds
[14] = quadrant by fibrin and LPS inhibition, HTS at 10 μM
[15] = 48 h, Table 1, dose response 0.001-20 μM, triplicates, primary rat microglia, 48 h, read-out: Fibrin IC50
[16] = dose response, fibrin-induced microglia activation, read-out: Fibrin IC50
[17] = fibrin-induced microglia activation, dose response, read-out: Fibrin IC50 (uM) (Suppl. Table 7)
[18] = increased cell size (>800 μm^2) as marker of activation
[19] = fibrin assay, dead cells (size <150 μm2)
[20] = fibrin stimulation, decreased size (<150 μm^2) as marker of toxicity
[21] = 48 h, Table 1, dose response 0.001-20 μM, triplicates, primary rat microglia, 48 h, read-out: LPS IC50
[22] = 48 h, increased cell size (>800 μm^2) as marker of activation
[23] = LPS-induced microglia activation, dose response, read-out: LPS IC50 (uM) (Suppl. Table 7)
[24] = dose response, LPS-induced microglia activation, read-out: LPS IC50
[25] = Microglia, Table 3, read-out: Cherry-picked Hit (Suppl. Table 7)
[26] = Table 3, read-out: Fibrin IC50 (uM) (Suppl. Table 7)
[27] = Table 3, read-out: LPS IC50 (uM) (Suppl. Table 7)
[28] = classification by fibrin and LPS inhibition, HTS at 10 μM

## CCN1CCCC1CNC(=O)c1cc(S(=O)(=O)CC)c(N)cc1OC (centres unmarked) [Amisulpride, reference compound]
In vitro [1]
  IC50: > 20 µM
[2]; [10]
  Quadrant (FIG. 5b): Q3
[2]; [11]
  inhibition at 10 µM: > 50%
[2]; [12]
  inhibition at 10 µM: > 50%
[2]; Table 1, screen at 10 μM
  Quadrant (FIG. 5b): Q3
[2]; [13]
  Quadrant (FIG. 5b): Q3
[2]; [14]
  Quadrant (FIG. 5b): Q4
Primary rat microglia [3]
  LPS % cell toxicity: 1%
[4]; [15]
  IC50: 20 µM
[4]; [16]
  IC50: 20 µM
[4]; [17]
  IC50: 20 µM
[4]; compounds at 10 μM
  inhibition at 10 µM: -5%
[4]; [18]
  inhibition at 10 µM: 54%
Primary rat microglia [5]
  LPS % cell toxicity: 0%
Primary rat microglia [6]; [19]
  Fibrin % cell toxicity: 1%
Primary rat microglia [6]; [20]
  Fibrin % cell toxicity: 2%
[7]; [21]
  IC50: > 20 µM
[7]; [22]
  inhibition at 10 µM: 31%
[7]; [23]
  IC50: > 20 µM
[7]; [24]
  IC50: > 20 µM
[7]; compounds at 10 μM
  inhibition at 10 µM: 12%
In vitro [8]; cFib assay
  IC50: > 20 µM

## C[C@H]1[C@H](OC(=O)CCC(=O)O)O[C@@H]2O[C@@]3(C)CC[C@H]4[C@H](C)CC[C@@H]1[C@@]24OO3 [Artesunate, reference compound]
In vitro [1]
  IC50: > 20 µM
[2]; [10]
  Quadrant (FIG. 5b): Q3
[2]; [25]
  inhibition at 10 µM: > 50%
[2]; [11]
  inhibition at 10 µM: > 50%
[2]; Table 1, screen at 10 μM
  Quadrant (FIG. 5b): Q3
[2]; Table 3, screen at 10 μM
  Quadrant (FIG. 5b): Q3
[2]; [13]
  Quadrant (FIG. 5b): Q3
[2]; [14]
  Quadrant (FIG. 5b): Q4
Primary rat microglia [3]
  LPS % cell toxicity: 0%
  IC50: > 20 µM
[4]
  Fibrin Selectivity: 3
  Fibrin Selectivity (LOG10): 0.45
[4]; [15]
  IC50: 7 µM
[4]; [26]
  IC50: 7 µM
[4]; [16]
  IC50: 7 µM
[4]; [17]
  IC50: 7 µM
[4]; compounds at 10 μM
  inhibition at 10 µM: 47%
[4]; [18]
  inhibition at 10 µM: 63%
Primary rat microglia [5]
  LPS % cell toxicity: 0%
Primary rat microglia [6]; [19]
  Fibrin % cell toxicity: 1%
Primary rat microglia [6]; [20]
  Fibrin % cell toxicity: 1%
[7]; [21]
  IC50: > 20 µM
[7]; [22]
  inhibition at 10 µM: 20%
[7]; [23]
  IC50: > 20 µM
[7]; [27]
  IC50: > 20 µM
[7]; [24]
  IC50: > 20 µM
[7]; compounds at 10 μM
  inhibition at 10 µM: 7%
In vitro [8]; Table 3
  IC50: > 20 µM
In vitro [8]; cFib assay
  IC50: > 20 µM

## CC[C@H](C)[C@H](N)C1=N[C@H](C(=O)N[C@@H](CC(C)C)C(=O)N[C@H](CCC(=O)O)C(=O)N[C@H](C(=O)N[C@H]2CCCCNC(=O)[C@H](CC(N)=O)NC(=O)[C@@H](CC(=O)O)NC(=O)[C@H](Cc3cnc[nH]3)NC(=O)[C@@H](Cc3ccccc3)NC(=O)[C@H]([C@@H](C)CC)NC(=O)[C@@H](CCCN)NC2=O)[C@@H](C)CC)CS1 [Bacitracin, reference compound] ({Ileψ(thiazoline)Cys}-L[dE]IK[dOrn]I[dF]H[dD]N; lactam 4-C)
In vitro [1]
  IC50: > 20 µM
[2]; [10]
  Quadrant (FIG. 5b): Q3
[2]; [11]
  inhibition at 10 µM: > 50%
[2]; [12]
  inhibition at 10 µM: > 50%
[2]; Table 1, screen at 10 μM
  Quadrant (FIG. 5b): Q3
[2]; [13]
  Quadrant (FIG. 5b): Q3
[2]; [14]
  Quadrant (FIG. 5b): Q4
Primary rat microglia [3]
  LPS % cell toxicity: 0%
[4]; [15]
  IC50: > 20 µM
[4]; [16]
  IC50: > 20 µM
[4]; [17]
  IC50: > 20 µM
[4]; compounds at 10 μM
  inhibition at 10 µM: -7%
[4]; [18]
  inhibition at 10 µM: 82%
Primary rat microglia [5]
  LPS % cell toxicity: 1%
Primary rat microglia [6]; [19]
  Fibrin % cell toxicity: 0%
Primary rat microglia [6]; [20]
  Fibrin % cell toxicity: 1%
[7]; [21]
  IC50: > 20 µM
[7]; [22]
  inhibition at 10 µM: 21%
[7]; [23]
  IC50: > 20 µM
[7]; [24]
  IC50: > 20 µM
[7]; compounds at 10 μM
  inhibition at 10 µM: 6%
In vitro [8]; cFib assay
  IC50: > 20 µM

## CC(=O)OCC(=O)[C@@]1(OC(C)=O)[C@@H](C)C[C@H]2[C@@H]3C[C@H](F)C4=CC(=O)C=C[C@]4(C)[C@@]3(F)[C@@H](O)C[C@@]21C [Diflorasone diacetate, reference compound]
In vitro [1]
  IC50: > 20 µM
[2]; [10]
  Quadrant (FIG. 5b): Q3
[2]; [25]
  inhibition at 10 µM: > 50%
[2]; [11]
  inhibition at 10 µM: > 50%
[2]; Table 1, screen at 10 μM
  Quadrant (FIG. 5b): Q3
[2]; Table 3, screen at 10 μM
  Quadrant (FIG. 5b): Q3
[2]; [28]
  Quadrant (FIG. 5b): Q4
[2]; microglia HTS, Table 6
  Quadrant (FIG. 5b): Q3
[2]; [13]
  Quadrant (FIG. 5b): Q3
Primary rat microglia [3]
  LPS % cell toxicity: 1%
  IC50: > 20 µM
Primary rat microglia [3]; Table 6
  IC50: > 20 µM
[4]
  Fibrin Selectivity: 2188
  Fibrin Selectivity (LOG10): 3.34
[4]; [15]
  IC50: 0.01 µM
[4]; [26]
  IC50: 0.01 µM
[4]; Table 6, read-out: Fibrin IC50 (uM) (Suppl. Table 7)
  IC50: 0.01 µM
[4]; [16]
  IC50: 0.01 µM
[4]; [17]
  IC50: 0.01 µM
[4]; compounds at 10 μM
  inhibition at 10 µM: 42%
[4]; [18]
  inhibition at 10 µM: 76%
[4]; fibrin vs LPS, LOG10, Table 6
  Fibrin Selectivity (LOG10): 3.34
[4]; fibrin vs LPS, Table 6
  Fibrin Selectivity: 2188
Primary rat microglia [5]
  LPS % cell toxicity: 0%
Primary rat microglia [6]; fibrin assay, dead cells (size <150 μm2), compounds at 10 μM
  Fibrin % cell toxicity: 1%
Primary rat microglia [6]; [20]
  Fibrin % cell toxicity: 1%
[7]; [21]
  IC50: > 20 µM
[7]; [22]
  inhibition at 10 µM: 39%
[7]; [23]
  IC50: > 20 µM
[7]; [27]
  IC50: > 20 µM
[7]; Table 6, read-out: LPS IC50 (uM) (Suppl. Table 7)
  IC50: > 20 µM
[7]; [24]
  IC50: > 20 µM
[7]; compounds at 10 μM
  inhibition at 10 µM: 31%
In vitro [8]; Table 3
  IC50: > 20 µM
In vitro [8]; cFib assay
  IC50: > 20 µM
In vitro [8]; cFib assay, Table 6
  IC50: > 20 µM

## C#C[C@]1(O)CC[C@H]2[C@@H]3CCc4cc(O)ccc4[C@H]3CC[C@@]21C [Ethinyl estradiol, reference compound]
In vitro [1]
  IC50: > 20 µM
[2]; [10]
  Quadrant (FIG. 5b): Q3
[2]; [11]
  inhibition at 10 µM: > 50%
[2]; [12]
  inhibition at 10 µM: > 50%
[2]; Table 1, screen at 10 μM
  Quadrant (FIG. 5b): Q3
[2]; [28]
  Quadrant (FIG. 5b): Q4
[2]; [13]
  Quadrant (FIG. 5b): Q3
[4]; [15]
  IC50: > 20 µM
[4]; [16]
  IC50: > 20 µM
[4]; [17]
  IC50: > 20 µM
[4]; compounds at 10 μM
  inhibition at 10 µM: 9%
[4]; [18]
  inhibition at 10 µM: 58%
Primary rat microglia [9]
  Fibrin % cell toxicity: 1%
[7]; [21]
  IC50: > 20 µM
[7]; [22]
  inhibition at 10 µM: 37%
[7]; [23]
  IC50: > 20 µM
[7]; [24]
  IC50: > 20 µM
[7]; compounds at 10 μM
  inhibition at 10 µM: 5%
In vitro [8]
  IC50: > 20 µM
